Reference: BindingDB's records for doi:10.1016/j.ejmech.2018.08.073 (Indian Csir-Central Drug Research Institute, 2018)

Target: T1, Histone deacetylase 6 (Homo sapiens, UniProt Q9UBN7)
T1 sequence (Q9UBN7 whole entry): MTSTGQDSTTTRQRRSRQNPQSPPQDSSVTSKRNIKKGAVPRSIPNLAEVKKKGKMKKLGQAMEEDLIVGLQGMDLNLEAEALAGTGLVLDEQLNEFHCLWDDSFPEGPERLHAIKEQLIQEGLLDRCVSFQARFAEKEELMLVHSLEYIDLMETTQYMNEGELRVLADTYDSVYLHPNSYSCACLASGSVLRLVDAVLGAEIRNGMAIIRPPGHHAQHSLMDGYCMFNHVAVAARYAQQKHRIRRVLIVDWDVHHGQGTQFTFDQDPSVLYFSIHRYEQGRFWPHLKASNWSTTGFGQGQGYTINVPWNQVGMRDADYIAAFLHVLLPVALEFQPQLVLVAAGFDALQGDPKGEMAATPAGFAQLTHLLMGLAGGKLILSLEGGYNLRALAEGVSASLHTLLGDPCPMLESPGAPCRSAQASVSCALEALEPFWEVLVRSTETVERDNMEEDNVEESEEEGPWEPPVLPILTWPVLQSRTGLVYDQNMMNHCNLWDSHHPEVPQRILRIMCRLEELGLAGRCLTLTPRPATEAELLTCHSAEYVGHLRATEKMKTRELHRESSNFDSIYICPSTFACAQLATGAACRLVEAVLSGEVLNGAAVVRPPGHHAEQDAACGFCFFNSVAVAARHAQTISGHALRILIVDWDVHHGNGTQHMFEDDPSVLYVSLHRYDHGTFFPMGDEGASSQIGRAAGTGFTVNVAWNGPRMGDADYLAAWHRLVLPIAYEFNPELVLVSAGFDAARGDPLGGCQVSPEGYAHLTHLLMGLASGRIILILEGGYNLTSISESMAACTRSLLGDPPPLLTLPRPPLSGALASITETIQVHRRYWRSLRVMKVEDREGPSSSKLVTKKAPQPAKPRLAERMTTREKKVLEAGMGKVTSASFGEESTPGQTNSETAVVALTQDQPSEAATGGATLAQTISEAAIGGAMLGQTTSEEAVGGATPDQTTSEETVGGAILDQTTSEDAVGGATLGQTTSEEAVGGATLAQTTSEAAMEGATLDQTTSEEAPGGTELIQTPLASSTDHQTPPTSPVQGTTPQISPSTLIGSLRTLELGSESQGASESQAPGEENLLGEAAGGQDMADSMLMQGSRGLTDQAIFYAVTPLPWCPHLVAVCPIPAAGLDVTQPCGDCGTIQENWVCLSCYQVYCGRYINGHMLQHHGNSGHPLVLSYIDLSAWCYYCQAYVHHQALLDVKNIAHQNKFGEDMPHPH
Assay: Inhibition of recombinant full-length human N-terminal GST-tagged HDAC6 expressed in baculovirus infected Sf9 insect cells using fluorescent-labelled Arg-His-Lys-Lys(Ac) as substrate measured after 2 hrs by fluorescence assay

Cc1c(CN)c2ccccc2n1-c1ccc(C(=O)NO)cc1
IC50: 1.5 nM
